What is called IC50 is the point on the concentration scale where inhibition reaches its midpoint.

The target in the assay is T1, human CCR7 (Homo sapiens, UniProt P32248).
T1 construct: expressed in transfected cells
T1 sequence (P32248 25-378): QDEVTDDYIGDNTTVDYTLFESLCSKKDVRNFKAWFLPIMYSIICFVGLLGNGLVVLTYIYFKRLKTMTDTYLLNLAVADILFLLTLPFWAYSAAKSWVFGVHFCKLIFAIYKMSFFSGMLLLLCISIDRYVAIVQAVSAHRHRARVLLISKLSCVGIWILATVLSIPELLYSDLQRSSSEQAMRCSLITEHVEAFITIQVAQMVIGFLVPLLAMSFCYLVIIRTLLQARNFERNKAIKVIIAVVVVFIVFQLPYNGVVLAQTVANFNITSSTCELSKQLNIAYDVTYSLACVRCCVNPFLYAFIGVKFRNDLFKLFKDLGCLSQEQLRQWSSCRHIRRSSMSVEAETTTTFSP
Put plainly: CCL19-induced calcium mobilization assay, U87.CD4 cells expressing CCR7. The format is cell-based. The note with it: for IC50: CCL19-induced calcium signaling, read-out: IC50 [μM] block CCL19 induced calcium signaling; for Decoy – 0 Active – 1: classification of tested compounds as decoy or active. The procedure: U87.CD4 cells that stably express either human CCR7, CXCR2, CCR5 or CXCR4 were seeded (20,000 cells/well) in gelatin-coated black-walled polystyrene 96-well plates with clear bottom and incubated overnight at 37°C and 5% CO2. […] Culture medium was removed, and cells were incubated for 45 min at room temperature in the dark. […] Exactly the same protocol was used to record calcium responses in Chinese hamster ovary (CHO)-K1 cells, upon stimulation with adenosine triphosphate (ATP, purchased from Sigma).
(A change in cytosolic calcium serves as a functional read-out for many receptors and channels.)

Where only a bound is given, the exact number is not on record here.

In the case of `CN(C)[C@@H]1CCCC[C@H]1NC(=S)Nc1cc(C(F)(F)F)cc(C(F)(F)F)c1` [C039, S=C(N[C@H]1[C@H](N(C)C)CCCC1)NC2=CC(C(F)(F)F)=CC(C(F)(F)F)=C2], the IC50 was greater than 50 µM and the “Decoy – 0 Active – 1” value turned out to be 0.
On to `CN(C)CCNC(=S)Nc1cc(C(F)(F)F)cc(C(F)(F)F)c1` [C041, S=C(NCCN(C)C)NC1=CC(C(F)(F)F)=CC(C(F)(F)F)=C1], for which the IC50 is greater than 50 µM and the “Decoy – 0 Active – 1” value is 0.
In the case of `COC(=O)/C(=C\NC(=S)N/C=C(/OC(=N)c1ccccc1)C(=O)OC)NC(=O)c1ccccc1` [C042, S=C(N/C=C(C(OC)=O)/NC(C1=CC=CC=C1)=O)N/C=C(C(OC)=O)/OC(C2=CC=CC=C2)=N], the IC50 is greater than 30 µM and the “Decoy – 0 Active – 1” value amounted to 0.
As for `CCOC(=O)CNC(=S)Nc1ncccc1C` [C043, CC1=CC=CN=C1NC(NCC(OCC)=O)=S], the IC50 is greater than 30 µM and the “Decoy – 0 Active – 1” value is 0.
In the same order, the values of `CCOC(=O)NC(=S)Nc1ccc2nsnc2c1` [C044, S=C(NC1=CC2=NSN=C2C=C1)NC(OCC)=O] are greater than 30 µM and 0.
With `CCOC(=O)NC(=S)Nc1ncccn1` [C045, S=C(NC(OCC)=O)NC1=NC=CC=N1], the IC50 was greater than 30 µM and the “Decoy – 0 Active – 1” value is reported as 0.
Regarding `CCOC(=O)NC(=S)Nc1cc(C)nc(C)n1` [C046, CC1=NC(NC(NC(OCC)=O)=S)=CC(C)=N1], the IC50 was greater than 30 µM and the “Decoy – 0 Active – 1” value amounted to 0.
As for `CCOC(=O)NC(=S)Nc1ccccn1` [C047, S=C(NC1=NC=CC=C1)NC(OCC)=O], the half-inhibitory concentration (IC50) is greater than 30 µM and the “Decoy – 0 Active – 1” value is 0.
The matching figures for `NC(=S)Nc1n[nH]c2ccccc12` [C049, S=C(NC1=NNC2=C1C=CC=C2)N]: greater than 30 µM and 0.
In the same order, the values of `FC(F)(F)c1cc(CNC(=S)NCc2ccccc2)cc(C(F)(F)F)c1` [C050, S=C(NCC1=CC=CC=C1)NCC2=CC(C(F)(F)F)=CC(C(F)(F)F)=C2] are greater than 50 µM and 0.
The matching figures for `CN(C)C(=O)c1cccc(NCC(=O)NCC2(c3ccccc3)CCC2)c1` [C052, CN(C)C(=O)c1cccc(NCC(=O)NCC2(c3ccccc3)CCC2)c1]: greater than 10 µM and 0.
As to `Cc1ccc(CN(C(=O)CNc2ccc(C(N)=O)c(C)c2)C2CC2)o1` [C053, Cc1ccc(CN(C(=O)CNc2ccc(C(N)=O)c(C)c2)C2CC2)o1], the IC50 was greater than 10 µM and the “Decoy – 0 Active – 1” value was 0.
As to `CC(=O)Nc1cccc(NCC(=O)N(Cc2ccc(C)o2)C2CC2)c1` [C054, CC(=O)Nc1cccc(NCC(=O)N(Cc2ccc(C)o2)C2CC2)c1], the IC50 was greater than 10 µM and the “Decoy – 0 Active – 1” value was found to be 0.
As to `CNC(=O)c1ccc(C=CC(=O)N(C2CC2)C(C)c2ccco2)cc1` (stereo not drawn) [C055, CNC(=O)c1ccc(C=CC(=O)N(C2CC2)C(C)c2ccco2)cc1], the IC50 was greater than 10 µM and the “Decoy – 0 Active – 1” value was 0.
Consider `Cc1ccc(C(NC(=O)Nc2ccc(C(N)=O)c(Cl)c2)C(C)(C)C)o1` (stereo not drawn) [C056, Cc1ccc(C(NC(=O)Nc2ccc(C(N)=O)c(Cl)c2)C(C)(C)C)o1], for which the IC50 is greater than 10 µM and the “Decoy – 0 Active – 1” value was found to be 0.
For `Cc1ccc(NCC(=O)NCc2ccco2)cc1C(=O)N(C)C` [C057, Cc1ccc(NCC(=O)NCc2ccco2)cc1C(=O)N(C)C], the half-inhibitory concentration (IC50) is greater than 10 µM and the “Decoy – 0 Active – 1” value was 0.
In the case of `Cc1ccc(C(C)NC(=O)C(=O)Nc2cc(C(=O)N(C)C)ccc2C)o1` (stereo not drawn) [C058, Cc1ccc(C(C)NC(=O)C(=O)Nc2cc(C(=O)N(C)C)ccc2C)o1], the 50% inhibitory concentration (IC50) is greater than 10 µM and the “Decoy – 0 Active – 1” value is 0.
With `CNC(=O)c1ccc(C=CC(=O)N(Cc2ccsc2)C2CC2)cc1` [C059, CNC(=O)c1ccc(C=CC(=O)N(Cc2ccsc2)C2CC2)cc1], the IC50 was greater than 10 µM and the “Decoy – 0 Active – 1” value was determined as 0.
In the same order, the values of `Cc1cc(NCC(=O)N(C)Cc2ccco2)ccc1C(=O)N(C)C` [C060, Cc1cc(NCC(=O)N(C)Cc2ccco2)ccc1C(=O)N(C)C] are greater than 10 µM and 0.
As for `CN(C)C(=O)c1ccc(Cl)c(NCC(=O)N(C)Cc2ccco2)c1` [C061, CN(C)C(=O)c1ccc(Cl)c(NCC(=O)N(C)Cc2ccco2)c1], the IC50 was greater than 10 µM and the “Decoy – 0 Active – 1” value turned out to be 0.
On to `CC(=O)c1cccc(NC(=O)NC(c2ccc(C)o2)C(C)(C)C)c1` (stereo not drawn) [C062, CC(=O)c1cccc(NC(=O)NC(c2ccc(C)o2)C(C)(C)C)c1], for which the IC50 is greater than 10 µM and the “Decoy – 0 Active – 1” value was 0.
For the compound `CCNC(=O)c1cccc(NC(=O)CN(Cc2ccco2)C2CCCC2)c1` [C063, CCNC(=O)c1cccc(NC(=O)C[NH+](Cc2ccco2)C2CCCC2)c1], the IC50 is greater than 10 µM and the “Decoy – 0 Active – 1” value came to 0.
With `CN(C)C(=O)c1cc(NCC(=O)NCc2ccco2)ccc1F` [C064, CN(C)C(=O)c1cc(NCC(=O)NCc2ccco2)ccc1F], the half-maximal inhibitory concentration (IC50) is greater than 10 µM and the “Decoy – 0 Active – 1” value is on record as 0.
Consider `Cc1ccc(N=C(N)C(N)=Nc2ccc(C)cc2)cc1` [C065, Cc1ccc([NH+]=C(N)C(N)=[NH+]c2ccc(C)cc2)cc1], for which the IC50 is greater than 10 µM and the “Decoy – 0 Active – 1” value is recorded as 0.
Turning to `CCCNC(=O)CNc1ccc(C)c(C(=O)N(C)C)c1` [C066, CCCNC(=O)CNc1ccc(C)c(C(=O)N(C)C)c1], the IC50 was greater than 10 µM and the “Decoy – 0 Active – 1” value came out at 0.
For the compound `NC(=O)c1cc(NCC(=O)NCc2ccco2)ccc1Cl` [C067, NC(=O)c1cc(NCC(=O)NCc2ccco2)ccc1Cl], the IC50 is greater than 10 µM and the “Decoy – 0 Active – 1” value was determined as 0.
As to `N=C(Nc1ccccc1)C(N)=Nc1ccccc1` [C068, NC(=[NH+]c1ccccc1)C(=[NH2+])Nc1ccccc1], the concentration for half-maximal inhibition (IC50) was greater than 10 µM and the “Decoy – 0 Active – 1” value came out at 0.
In the same order, the values of `CCc1ccc(C(NC(=O)C(=O)Nc2cccnc2C)C(C)(C)C)o1` (stereo not drawn) [C069, CCc1ccc(C(NC(=O)C(=O)Nc2cccnc2C)C(C)(C)C)o1] are greater than 10 µM and 0.
`CN(C)CC(C)(C)CNC(=O)C(=O)Nc1cccc(C(=O)N(C)C)c1` [C070, CN(C)C(=O)c1cccc(NC(=O)C(=O)NCC(C)(C)C[NH+](C)C)c1]: the IC50 was greater than 10 µM and the “Decoy – 0 Active – 1” value is listed as 0.
With `Cc1ccc(NC=C2C(=O)CC(c3ccco3)CC2=O)cc1` (stereo not drawn) [C071, Cc1ccc(NC=C2C(=O)CC(c3ccco3)CC2=O)cc1], the IC50 is greater than 10 µM and the “Decoy – 0 Active – 1” value was 0.
As for `CCNC(=O)CNc1ccc(C)c(C(=O)N(C)C)c1` [C072, CCNC(=O)CNc1ccc(C)c(C(=O)N(C)C)c1], the IC50 was greater than 10 µM and the “Decoy – 0 Active – 1” value was 0.
As for `CC1CCCCN1C(=O)CNc1ccc(Cl)c(C(=O)N(C)C)c1` (stereo not drawn) [C073, CC1CCCCN1C(=O)CNc1ccc(Cl)c(C(=O)N(C)C)c1], the IC50 was greater than 10 µM and the “Decoy – 0 Active – 1” value is recorded as 0.
For `CC1CCCCN1C(=O)CNc1cc(C(=O)N(C)C)ccc1Cl` (stereo not drawn) [C074, CC1CCCCN1C(=O)CNc1cc(C(=O)N(C)C)ccc1Cl], the IC50 is greater than 10 µM and the “Decoy – 0 Active – 1” value worked out at 0.
On to `CN(C)C(=O)c1cccc(NCC(=O)N(C)C2CCCCC2)c1` [C075, CN(C)C(=O)c1cccc(NCC(=O)N(C)C2CCCCC2)c1], for which the 50% inhibitory concentration (IC50) is greater than 10 µM and the “Decoy – 0 Active – 1” value is on record as 0.
The matching figures for `CN(C)C(=O)c1cccc(NC(=O)NCCc2ccccn2)c1` [C076, CN(C)C(=O)c1cccc(NC(=O)NCCc2ccccn2)c1]: greater than 10 µM and 0.
As for `N=C(Nc1ccc(Br)cc1)C(N)=Nc1ccc(Br)cc1` [C077, NC(=[NH+]c1ccc(Br)cc1)C(=[NH2+])Nc1ccc(Br)cc1], the IC50 is greater than 10 µM and the “Decoy – 0 Active – 1” value was 0.
In the same order, the values of `Cc1ccc(NC2=NC(=O)SC2=Cc2ccco2)cc1` [C078, Cc1ccc(NC2=[NH+]C(=O)SC2=Cc2ccco2)cc1] are greater than 10 µM and 0.
On to `CCn1cccc(NC(=O)N2CC(Cc3ccccc3Br)C2)c1=O` [C079, CCn1cccc(NC(=O)N2CC(Cc3ccccc3Br)C2)c1=O], for which the IC50 was greater than 50 µM and the “Decoy – 0 Active – 1” value is listed as 0.
The matching figures for `Cc1cccnc1C1(CNc2cc(N3CCC[C@H](CO)C3)ncn2)CC1` [C080, Cc1cccnc1C1(CNc2cc(N3CCC[C@H](CO)C3)ncn2)CC1]: greater than 50 µM and 0.
On to `O=C(NCc1ccccc1)c1cn(C2CN(C(=O)C3CC3)C2)nn1` [C081, O=C(NCc1ccccc1)c1cn(C2CN(C(=O)C3CC3)C2)nn1], for which the 50% inhibitory concentration (IC50) was greater than 50 µM and the “Decoy – 0 Active – 1” value is recorded as 0.
`CCOC(=O)c1c(C)c(CCC(=O)N[C@H](C)c2ccccc2)c(C)n1C` [C082, CCOC(=O)c1c(C)c(CCC(=O)N[C@H](C)c2ccccc2)c(C)n1C]: the concentration for half-maximal inhibition (IC50) is greater than 50 µM and the “Decoy – 0 Active – 1” value came to 0.
In the same order, the values of `Cc1cccc(CN2CCC[C@H](Nc3ccc(C)c(C)c3)C2)n1` [C083, Cc1cccc(C[N@H+]2CCC[C@H](Nc3ccc(C)c(C)c3)C2)n1] are greater than 50 µM and 0.

The values are drawn from PMC8972196, “A Set of Experimentally Validated Decoys for the Human CC Chemokine Receptor 7 (CCR7) Obtained by Virtual Screening” (Frontiers in Pharmacology, 2022).
